In patent publication US9206245B2, “Immunogenic peptides and methods of use for treating and preventing cancer” (The United States of America, as represented by the …, priority 2005, dated 2015):
Where no end group is shown, it is not given here.

Columns and labels:
HLA-B7 = biological target: T1, HLA-B7 (Homo sapiens, UniProt P01889); assay: T2-B7 binding assay: stabilization of HLA-B7 molecules on the surface of T2-B7 cells, flow cytometry; conditions: for binding affinity for HLA-B7 compared with natural RS10 peptide: FIGS. 4 and 6; for EC50: FIGS. 4 and 6, read-out: concentration required for a 50% increase in HLA-B7 expression
T1 construct: transfected with the HLA-B7 gene; expressed in transfected cells; host or cells: T2 (TAP1/TAP2-deficient hybrid B and T lymphoblastoid cell line) transfected with the HLA-B7 gene (T2.B7, gift of Peter Cresswell)
Method: A chromosomal translocation-generated fusion protein breakpoint peptide, RS10 (SPQNSIRHNL), is selected on the basis of predicted potential binding to HLA-B7 (Rammensee et al., Immunogenetics 41: 178-228 (1995)). Peptide binding to HLA-B7 is assessed by using stabilization of HLA-B7 molecules on the surface of T2-B7 cells that lack the TAP transporter and therefore express only short-lived empty HLA-B7 molecules unless a peptide is present that can bind and stabilize them. These assays are described in (Stuber et al., Eur. J. Immunol., 22, 2697-2703 (1992), Nijman et al., Eur. J. Immunol., 23, 1215-1219 (1993), Zeh et al., Hum. Immunol., 39, 79-86 (1994), and Smith et al., Internat. Immunol., 9, 1085-1093 (1997)). Cells of the TAP1/TAP2-deficient T2 cell line (Salter et al., Immunogenetics, 21, 235-246 (1985), and Spies et al., Nature, 351, 323-324 (1991)) transfected with the HLA-B7 gene are suspended in culture medium containing heat inactivated FCS (2.5% v/v) and added to 96-well round-bottomed plates at 2×10^5 cells/well. Human β2-microglobulin (Sigma Chemical Co.) is also added at 20 μg/well. Where appropriate, peptide is added to the desired concentration. The cells are then incubated overnight at 37° C. in 5% CO2, followed by washing with PBS containing NaN3 (0.5% w/v and FCS 2% v/v). Next, cells are incubated on ice for 30 min in the presence of primary anti-HLA-B7 specific antibody (BB7.1 hybridoma culture supernatant; ATCC), followed by washing and incubation for 30 min in goat anti-mouse immunoglobulin FITC (Becton Dickinson). Analysis is performed by flow cytometry.
Conventional mAb staining is conducted in PBS containing 0.01% sodium azide on ice. Cells are labeled with FITC- or PE-conjugated mAbs obtained from BD PharMingen (San Diego, Calif.). For each staining of interest, the appropriate isotype-matched control is included. All reagents are used at optimal concentration as determined experimentally. Flow cytometric analysis is performed with a FACScan (BD Biosciences, Mountain View, Calif.). Data are collected on 5000-10,000 viable cell events and analyzed with CellQuest software.

C1R-B7 target cells = assay: 4 h 51Cr release assay, RS10-specific human CTL line against peptide pulsed C1R-B7 target cells; assay type: cell-based; conditions: peptide pulsed at 10 μM, various E:T ratios, versus control peptide
Method: In particular, specific cytotoxic activities are determined in a standard 4 h ^51Cr release assay at various effector:target (E:T) ratios. Briefly, graded doses of viable effector cells are plated in triplicate in 96-well U-bottom culture plates (Corning Glass, Corning, N.Y.) and co-cultured for 4 h with sodium chromate-labeled (100 μCi; NEN, Boston, Mass.) peptide pulsed (10 μM) C1R-B7 target cells. In some experiments, the Rh5, RD and CTR tumor cell lines are used as a target. Supernatants are collected, radioactivity measured, and specific lysis is calculated according to the equation: percentage of specific cytotoxicity=(experimental cpm−spontaneous cpm)/(maximum cpm−spontaneous cpm)×100. Maximum ^51Cr release is determined from supernatants of lysed target cells incubated with Triton X-100 (5% v/v). Spontaneous release is determined from target cells incubated without added effector cells.

T1 sequence (P01889 25-362): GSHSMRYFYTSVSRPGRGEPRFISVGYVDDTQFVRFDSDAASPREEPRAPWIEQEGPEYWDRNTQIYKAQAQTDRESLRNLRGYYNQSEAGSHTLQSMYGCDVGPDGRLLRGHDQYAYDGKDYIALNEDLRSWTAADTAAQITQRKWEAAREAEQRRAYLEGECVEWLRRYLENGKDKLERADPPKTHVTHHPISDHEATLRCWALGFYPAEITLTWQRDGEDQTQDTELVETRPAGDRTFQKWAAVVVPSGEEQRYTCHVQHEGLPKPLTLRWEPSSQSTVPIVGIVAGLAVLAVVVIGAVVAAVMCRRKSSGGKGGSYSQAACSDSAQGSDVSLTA
T1 sequence (P61769 21-119 partner): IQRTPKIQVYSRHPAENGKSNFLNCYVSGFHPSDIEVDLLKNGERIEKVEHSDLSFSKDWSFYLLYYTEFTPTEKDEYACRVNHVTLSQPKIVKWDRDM

SPANSIRHNL [RS10-3A, SPANSIRHNL]
binding affinity for HLA-B7 compared with natural RS10 peptide (HLA-B7): higher binding affinity for HLA-B7 than the natural RS10 peptide | EC50 (HLA-B7): ~0.05 µM | CTL lysis of peptide pulsed C1R-B7 target cells (C1R-B7 target cells): specific killing observed

SPQNAIRHNL [RS10-5A]
binding affinity for HLA-B7 compared with natural RS10 peptide (HLA-B7): higher binding affinity for HLA-B7 than the natural RS10 peptide

SPQNSARHNL [RS10-6A]
binding affinity for HLA-B7 compared with natural RS10 peptide (HLA-B7): higher binding affinity for HLA-B7 than the natural RS10 peptide

SPQNSIRHNL [RS10, SPQNSIRHNL]
EC50 (HLA-B7): ~0.3 µM
